Columns and labels:
Format in all cases: in vivo
Ranunculus repens = assay: Field trial on strawberries, pre-emergence, visual % control
Description: (§1) Field trials were conducted on various moncotyledonous weeds and dicotyledonous weeds and the effect of D-isomer of Napropamide was studied to understand the selective and effective control of dicotyledonous weeds over monocotyledonous weeds. The effect of D-isomer of Napropamide in comparison to racemic napropramide and untreated was studied, which is concluded hereinbelow:
(§2) Several small plot replicated trials were carried out to evaluate and/or compare the efficacy of D-Napropamide against a range of indicated annual broadleaved and grass weed species in the indicated crops. No problems were encountered during mixing or application of any of the product formulations or tank mixtures under test.
(§3) In each of the reported data, the homogeneity of variance was tested by Bartlett's test. Wherever this test indicated no homogeneity of variance, the transformed values were used for analysis of variance. Assessment data was then analyzed using a two-way analysis of variance (ANOVA) on untransformed and transformed data. The probability of no significant differences occurring between treatment means was calculated as the F probability value (p(F)). A mean comparison test was only performed and reported when the treatment of F that was calculated during analysis of variance was significant at the observed significance level specified for the mean comparison test. Where the data was transformed, treatment means in the reports were presented in their detransformed state, with the appropriate letter test and mean descriptions (LSD and standard deviation) derived from the transformed ANOVA.
Trial was carried out on strawberries to evaluate the efficacy and selectivity of D-Napropamide and equivalent rate of Devrinol (Napropramide) applied pre-emergence. […] The percentage control of D-isomer of Napropamide and Devrinol was assessed in comparison to the untreated after 224 days after application.

Senecio vulgaris = assay: as above
Description: as §1, §2, §3
(§4) Trial was carried out on strawberries to evaluate the efficacy and selectivity of D-Napropamide and equivalent rate of Devrinol (Napropramide) applied pre-emergence. […]

Papaver rhoeas = assay: as above
Description: as §1, §2, §3, §4

Matricaria sp. = assay: Field trial in winter oilseed rape, pre-emergence, % control and ground cover
Description: as §1, §2, §3
Trials were conducted to evaluate the selectivity and efficacy of D-isomer of Napropamide when applied pre-emergence to oilseed rape crop. The % control of weed was assessed at regular intervals.

Digitaria sanguinalis = assay: Plot trial, % control of Digitaria sanguinalis
Description: as §1, §2
as §3, with “ANOVA. […]” for “ANOVA.”

[1] = 3.0 L/Ha of 450 g/L formulation
[2] = 4.2 L/Ha of 450 g/L formulation
[3] = 8.5 L/Ha of 450 g/L formulation

## CCN(CC)C(=O)[C@@H](C)Oc1cccc2ccccc12 [D-Napropamide, D-(−)-N,N-diethyl-2-(α-naphthoxy)propionamide]
Ranunculus repens; [1]
  Percentage Control at 224 DAA: 66.7%
Ranunculus repens; [2]
  Percentage Control at 224 DAA: 100%
Ranunculus repens; [3]
  Percentage Control at 224 DAA: 100%
Ranunculus repens; Ranunculus repens
  Conclusion: efficacy in control vis-à-vis Napropamide at an equivalent dosage: surprising efficacy
Senecio vulgaris; [1]
  Percentage Control at 70 DAA: 75.0%
Senecio vulgaris; [2]
  Percentage Control at 70 DAA: 50.0%
Senecio vulgaris; [3]
  Percentage Control at 70 DAA: 75.0%
Senecio vulgaris; Senecio vulgaris
  Conclusion: efficacy in control vis-à-vis Napropamide at an equivalent dosage: surprising efficacy
Papaver rhoeas; [1]
  Percentage Control at 70 DAA: 71.7%
Papaver rhoeas; [2]
  Percentage Control at 70 DAA: 95.0%
Papaver rhoeas; [3]
  Percentage Control at 70 DAA: 97.5%
Papaver rhoeas; Papaver rhoeas
  Conclusion: efficacy in control vis-à-vis Napropamide at an equivalent dosage: surprising efficacy
Matricaria sp.; 450 g/L @ 2.0 L/Ha
  Percentage ground cover %, value in brackets (untreated 0.0%): (99.3%)
Matricaria sp.; 450 g/L @ 2.0 L/Ha, oilseed rape
  Percentage Control at 49 DAA: 97.00%
Matricaria sp.; 450 g/L @ 2.0 L/Ha, untreated 4.50
  Percentage ground cover %: 0.30%
Matricaria sp.; Matricaria sp., dicot, oilseed rape
  Conclusion: efficacy in control vis-à-vis Napropamide at an equivalent dosage: superior efficacy
Digitaria sanguinalis; 3 L/Ha of 450 g/L formulation, 16 DAA
  % Control: 7.50%
Digitaria sanguinalis; 3 L/Ha of 450 g/L formulation, 33 DAA
  % Control: 8.75%
Digitaria sanguinalis; 4.5 L/Ha of 450 g/L formulation, 16 DAA
  % Control: 10.00%
Digitaria sanguinalis; 4.5 L/Ha of 450 g/L formulation, 33 DAA
  % Control: 10.00%
Digitaria sanguinalis; 6 L/Ha of 450 g/L formulation, 16 DAA
  % Control: 10.00%
Digitaria sanguinalis; 6 L/Ha of 450 g/L formulation, 33 DAA
  % Control: 12.50%
Digitaria sanguinalis; 7.5 L/Ha of 450 g/L formulation, 16 DAA
  % Control: 10.00%
Digitaria sanguinalis; 7.5 L/Ha of 450 g/L formulation, 33 DAA
  % Control: 11.25%
Digitaria sanguinalis; 9 L/Ha of 450 g/L formulation, 16 DAA
  % Control: 10.00%
Digitaria sanguinalis; 9 L/Ha of 450 g/L formulation, 33 DAA
  % Control: 18.75%
Digitaria sanguinalis; Digitaria sanguinalis
  Conclusion: efficacy in comparison to Napropamide in the control of monocotyledonous weeds: only as efficacious or less
